Laboratory results reported in patent US9981908B2, “Amino acid derivatives” (priority 2013, dated 2018).
Read-outs that look alike come from different tables or passages of the source.

Target: T1, pylRS/tRNA pair (Methanosarcina mazei, UniProt Q8PWY1, Y384F)
T1 construct: expressed in transfected cells; host or cells: HEK293 cells stably expressing pylRS
Format: cell-based
Details: HEK293 cells stably expressing pylRS, nnAAs at 2 mM for 2-3 days; for incorporation in the GFP reporter gene (green cells) / MFI: tRNApyl and GFPY40 reporter; for Positive GFP Assay: transfected with tRNApyl and GFPY40 reporter, visual inspection under the microscope; for MFI: GFP fluorescence by flow cytometry, geometric mean of the fluorescent cells
From the text: An in vitro cell based assay was developed to assess the compatibility of the pylRS/tRNA pair and the pyrrolysine analogs of the present invention (nnAAs) by and the efficiency of nnAAs integration into a target protein. For this, HEK293 cells stably expressing pylRS (SEQ ID NO 4) were transiently transfected with plasmids for the expression of tRNApyl (SEQ ID NO 7) and a reporter construct encoding GFPY40 (containing amber codon in place of tyrosine at amino acid residue number 40 (where 1 is the initiator methionine)) (SEQ ID NOs 10 and 11) using standard transfection protocols. Transfected cells were incubated with nnAAs at 2 mM for 2-3 days GFP production was analyzed qualitatively by visual inspection under the microscope. The GFP fluorescence was quantified by flow cytometry using an Accuri flow cytometer and the geometric mean of the fluorescent cells determined.
This cell based assay was used to determine whether the different nnAAs were suitable substrates for the pylRS and allowed its translation into a target protein. Cells expressing the PylRS/tRNApyl pair and containing a vector encoding the GFPY40 reporter gene were incubated in the presence of the nnAAs. nnAAs that are readily utilized by the PylRS/tRNApyl pair support the translation of the nnAA into the amber site of GFP and allow read-through of the gene producing full length GFP (fluorescent protein). The fluorescence intensity of the cells depends on the efficiency of nnAA incorporation. Thus, nnAAs that are poorly utilized produce weakly fluorescent or non-fluorescing cells. […] Furthermore, the relative expression levels in each sample was compared to those generated by substrates known to be efficiently utilized by pylRS.

T1 sequence (Q8PWY1 whole entry Y384F): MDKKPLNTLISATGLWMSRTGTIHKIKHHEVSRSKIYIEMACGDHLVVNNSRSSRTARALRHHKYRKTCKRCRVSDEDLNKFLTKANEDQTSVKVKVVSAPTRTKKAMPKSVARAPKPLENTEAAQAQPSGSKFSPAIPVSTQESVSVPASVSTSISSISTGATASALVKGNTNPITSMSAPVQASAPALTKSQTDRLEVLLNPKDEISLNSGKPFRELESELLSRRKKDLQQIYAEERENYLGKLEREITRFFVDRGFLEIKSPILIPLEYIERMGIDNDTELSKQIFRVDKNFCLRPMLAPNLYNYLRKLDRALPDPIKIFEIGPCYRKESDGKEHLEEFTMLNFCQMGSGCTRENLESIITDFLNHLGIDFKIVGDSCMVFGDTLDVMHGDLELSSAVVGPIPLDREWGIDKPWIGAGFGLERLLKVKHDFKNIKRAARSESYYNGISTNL

Structure (SMILES) | incorporation in the GFP reporter gene (green cells) | Positive GFP Assay | further results
[N-]=[N+]=NCCOC(=O)NCCSCC(N)C(=O)O (stereo in doubt) [Formula III.1, (2S)-2-amino-3-[(2-{[(2-azidoethoxy)carbonyl]amino}ethyl)sulfanyl]propanoic acid] | incorporated in the GFP reporter gene and yield green cells | Yes | 
C#CCOC(=O)NCCSCC(N)C(=O)O (stereo in doubt) [Formula III.2, (2S)-2-amino-3-[(2-{[(prop-2-yn-1-yloxy)carbonyl]amino}ethyl)sulfanyl]propanoic acid] | incorporated in the GFP reporter gene and yield green cells | Yes | 
C=CCOC(=O)NCCSCC(N)C(=O)O (stereo in doubt) [Formula III.3, (2S)-2-amino-3-[(2-{[(prop-2-en-1-yloxy)carbonyl]amino}ethyl)sulfanyl]propanoic acid] | incorporated in the GFP reporter gene and yield green cells | Yes | 
C=CCNC(=O)CCCSCC(N)C(=O)O (stereo in doubt) [Formula III.12, (2S)-2-amino-3-({3-[(prop-2-en-1-yl)carbamoyl]propyl}sulfanyl)propanoic acid] | incorporated in the GFP reporter gene and yield green cells | Yes | 
[N-]=[N+]=NCCNC(=O)CCCSCC(N)C(=O)O (stereo in doubt) [Formula III.13, (2S)-2-amino-3-({3-[(2-azidoethyl)carbamoyl]propyl}sulfanyl)propanoic acid] | incorporated in the GFP reporter gene and yield green cells | Yes | 
[N-]=[N+]=NCCOC(=O)NCCCC[C@H](N)C(=O)O [Formula IA.1, (2S)-2-amino-6-{[(2-azidoethoxy)carbonyl]amino}hexanoic acid] |  | Yes | MFI: 931,289; MFI (listed as 1A.1): 931289
C#CCOC(=O)NCCCC[C@H](N)C(=O)O [Formula IA.2, (2S)-2-amino-6-{[(prop-2-yn-1-yloxy)carbonyl]amino}hexanoic acid] |  | Yes | MFI: 1,676,250; MFI (listed as 1A.2): 1676250
C=CCOC(=O)NCCCC[C@H](N)C(=O)O [Formula IA.3, (2S)-2-amino-6-{[(prop-2-en-1-yloxy)carbonyl]amino}hexanoic acid] |  | Yes | MFI: 2,250,000; MFI (listed as 1A.3): 2250000
[N-]=[N+]=NCCNC(=O)NCCCC[C@H](N)C(=O)O [Formula IA.4, (2S)-2-amino-6-{[(2-azidoethyl)carbamoyl]amino}hexanoic acid] | incorporated in the GFP reporter gene and yield green cells | Yes | MFI: 254250
C=CCNC(=O)NCCCC[C@H](N)C(=O)O [Formula IA.5, (2S)-2-amino-6-{[(prop-2-en-1-yl)carbamoyl]amino}hexanoic acid] | incorporated in the GFP reporter gene and yield green cells |  | 
[N-]=[N+]=NCCOC(=O)NCC(=O)NC[C@H](N)C(=O)O [Formula V.1, (2S)-2-amino-3-(2-{[(2-azidoethoxy)carbonyl]amino}acetamido)propanoic acid] | incorporated in the GFP reporter gene and yield green cells | Yes | 
C#CCOC(=O)NCC(=O)NC[C@H](N)C(=O)O [Formula V.2, (2S)-2-amino-3-(2-{[(prop-2-yn-1-yloxy)carbonyl]amino}acetamido)propanoic acid] | incorporated in the GFP reporter gene and yield green cells |  | 
C=CCOC(=O)NCC(=O)NC[C@H](N)C(=O)O [Formula V.3, (2S)-2-amino-3-(2-{[(prop-2-en-1-yloxy)carbonyl]amino}acetamido)propanoic acid] | incorporated in the GFP reporter gene and yield green cells | Yes | 
CCCC(N=[N+]=[N-])C(=O)NCCCC[C@H](N)C(=O)O (stereo partly drawn) [Formula VII.1, (2S)-2-amino-6-(2-azidopentanamido)hexanoic acid] | incorporated in the GFP reporter gene and yield green cells | Yes | 
C=CCOC(=O)NC(CCN=[N+]=[N-])C(=O)NC[C@H](N)C(=O)O (stereo partly drawn) [Formula VIII.1, (2S)-2-amino-3-(4-azido-2-{[(prop-2-en-1-yloxy)carbonyl]amino}butanamido)propanoic acid] |  | Yes | 
